Values joined by “and” are separate entries in the source; they are usually repeats but may differ in a detail not shown here. Equal values may be shown once.
System: 299254-011-R-J1-PDC complex spheroid viability
Test: Anticancer human tumor 299254-011-R-J1-PDC patient-derived melanoma cell line growth inhibition [POLQ]
Settings: for viability, T/C: stronger effect = lower value
Method: Multicellular complex tumor spheroid response to Polymerase (POL) inhibitors (novobiocin, ART-558, RP6685) in combination with a variety of drugs and investigational agents in selected tumor cell lines
The POL inhibitors (novobiocin, ART-558, and RP6685) were evaluated both individually and in combination with standard of care and investigational anticancer small molecules within a complex spheroid model of solid tumors. . Complex spheroids include a stromal component modeled by human endothelial cells (HUVEC) and fibroblasts modeled by human mesenchymal stem cells (MSCs). The concentration ranges selected for each drug and investigational agent were based upon clinically achievable concentrations if the clinical Cmax of the agent was known.
Compounds. The drugs and investigational agents: novobiocin (NSC847541), ART-558 (NSC835418), RP-6685 (NSC848927), peposertib (NSC802822), ceralasertib (NSC780249), elimusertib (NSC800525), camonsertib (NSC841442), AZD-1390 (NSC803789), olaparib (NSC753686), talazoparib (NSC767125), rucaparib (NSC756644), sotorasib (NSC818433), MRTX-1133 (NSC836407), SN-38 (NSC673596), topotecan (NSC609699), epotoside (NSC141540), doxorubicin (NSC123127), gemcitabine (NSC613327), 5-fluorouracil (NSC19893), paclitaxel (NSC125973), vemurafenib (NSC761431), MSA-2 (NSC828583), SN-011 (NSC837082), adavosertib (NSC754352), prexasertib (NSC758257), carboplatin (NSC241240) and oxaliplatin (NSC266046), were obtained from the National Cancer Institute (NCI) Developmental Therapeutics Program Chemical Repository (21). The FDA-approved anticancer drug set is available from the Developmental Therapeutics Program at https://dtp.cancer.gov/organization/dscb/obtaining/. […] The stock solutions were prepared in dimethyl sulfoxide (DMSO, Sigma-Aldrich, St. Louis, MO, cat. D2650), except for the platinum compounds which were prepared in saline (Quality Biological, Gaithersburg, MD, cat. 114-055-101), at 800-fold the tested concentration and stored at -70 degrees C prior to their use. All drugs and investigational agents were tested over a range starting from a high concentration at or near the clinical Cmax and decreasing in half-log increments. If the clinical Cmax for an agent had not been determined, the highest concentration tested was 10 microM, except for SN-38, which was tested at a high concentration of 1 microM.
Cell Culture. All cells were maintained in an incubator at 37 degrees C and 5% CO2 with 95% humidity. The PDC lines were cultured according to standard operating procedures established by the NCI PDMR (https://pdmr.cancer.gov). Table 3 of the manuscript, lists the cell lines along with the number of the three cell types plated to form the mct-spheroids and media for tumor cell growth. After thawing, all PDC lines, except 997537-175-T-J1-PDC and 415267-285-R-J2-PDC, were cultured in Matrigel-coated flasks prepared with a working solution of 1X Ham's F-12 nutrient mix, without supplementation (Thermo Fisher Scientific, cat. 11765054), 100 U/mL penicillin-streptomycin (Thermo Fisher Scientific, cat. 15140122), and 2.5% Matrigel (Corning Inc., Corning, NY, cat. 354248) for the first three passages. The two PDC lines 997537-175-T-J1-PDC and 415267-285-R-J2-PDC were cultured on uncoated flasks. The 857933-349-R-J2-PDC line was cultured in 6C/Colon 1B media containing advanced DMEM/F-12 (Thermo Fisher Scientific, cat. 12634028), 10 mM HEPES (Thermo Fisher Scientific, cat. 15630080), 1X GlutaMAX supplement (Thermo Fisher Scientific, cat. 35050061), 0.1 mg/mL primocin (InvivoGen, San Diego, CA, cat. ant-pm-2), 10% defined fetal bovine serum, heat inactivated (HyClone Laboratories Inc., Logan, UT, cat. SH30070.03HI), 50% L-WRN conditioned media (ATCC, cat. CRL-3276), 1.25 mM N-Acetyl-L-cysteine (Sigma-Aldrich, cat. A9165), 10 mM nicotinamide (Sigma-Aldrich, cat. N0636), 1X B-27 supplement (Thermo Fisher Scientific, cat. 17504044), 1X N-2 supplement (Thermo Fisher Scientific, cat. […]
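Note: spheroids exposed to drugs for one week before measurement.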
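Throughout, for viability, T/C: percent viability relative to DMSO vehicle control taken as 100%.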

| SMILES | viability, T/C (compound 0.0316 µM) | viability, T/C (compound 0.1 µM) | viability, T/C (compound 0.316 µM) | viability, T/C (compound 1 µM) | viability, T/C (compound 3.16 µM) | viability, T/C (compound 10 µM) | IC50 (curve of compound) | IC50 (compound alone, run of 11/27/2023) [nM] | viability, T/C (compound 0.00316 µM) | viability, T/C (compound 0.01 µM) |
| --- | --- | --- | --- | --- | --- | --- | --- | --- | --- | --- |
| CNCc1ccc(-c2[nH]c3cc(F)cc4c3c2CCNC4=O)cc1 | 117% and 108% and 100% | 95.8% and 94.7% and 99.7% | 113% and 105% and 97.2% | 109% and 96.3% and 92.8% | 111% and 113% and 110% | 119% and 107% and 109% | > 10000 nM |  |  |  |
| COC1C(OC(N)=O)C(O)C(Oc2ccc3c(O)c(NC(=O)c4ccc(O)c(CC=C(C)C)c4)c(=O)oc3c2C)OC1(C)C (centres undefined) |  |  |  |  | 102% [middle of 13 runs] |  |  | > 10000 |  |  |
| COc1cc(C2c3cc4c(cc3C(OC3OC5COC(C)OC5C(O)C3O)C3COC(=O)C23)OCO4)cc(OC)c1O (centres undefined) | 101% and 98.9% and 106% | 103% and 106% and 84.8% | 93.5% and 92.1% and 111% | 87.4% and 91.4% and 94.4% | 67.7% and 73.7% and 72.5% | 53.7% and 56.4% and 62.8% | > 10000 nM |  |  |  |
| COc1cc2cc(C(=O)CCC(=O)O)sc2cc1OC | 107% and 89.4% and 110% | 94.7% and 99.2% and 93.1% | 106% and 87.4% and 93.6% | 103% and 100% and 97.2% | 113% and 103% and 108% | 103% and 104% and 101% | > 10000 nM |  |  |  |
| COc1ccc([C@@H](O)c2cc(-c3ncnc4cc(N5CCOCC5)ccc34)c(F)cc2Cl)nn1 | 106% and 102% and 92.9% | 86.3% and 91.9% and 94.6% | 106% and 96.2% and 105% | 94% and 100% and 99% | 92.6% and 84.1% and 88.5% | 49.3% and 50% and 43.6% | 9870 nM and > 10000 nM and 8570 nM |  |  |  |
| COc1cccc(OCCCN)c1-c1cc(Nc2cnc(C#N)cn2)n[nH]1 | 60.5% and 75.7% and 77.2% | 52.1% and 57.2% and 56.9% | 37.6% and 41.3% and 50.1% | 38.9% and 37.3% and 45.4% |  |  | 78.9 nM and 135 nM and 268 nM |  | 98.2% and 103% (2×) | 92.8% and 112% and 96% |
| COc1cccc2c1C(=O)c1c(O)c3c(c(O)c1C2=O)CC(O)(C(=O)CO)CC3OC1CC(N)C(O)C(C)O1 (centres undefined) | 83.7% and 89.6% and 90% | 80.1% and 91.1% and 93.3% | 69.1% and 73.4% and 55.2% | 59% and 60.7% and 46% | 9.86% and 15.5% and 12% | 0.74% and 1.67% and 3.35% | 1190 nM and 1200 nM and 612 nM |  |  |  |

Source: PubChem BioAssay AID1963849 (Molecular Pharmacology Branch, DTP, NCI, 2024)
